# Data from ChEMBL document CHEMBL1157905, “Synthesis and antibacterial activities of a novel alkylide: 3-O-(3-aryl-2-propargyl) and 3-O-(3-aryl-2-propenyl)clarithromycin derivatives” (2010).
# Legend:
# Format in all cases: functional
# [1] = test system: Staphylococcus aureus; assay: Antimicrobial activity against erythromycin-susceptible Staphylococcus aureus PU19 encoded by erm(A) gene
# [2] = test system: Staphylococcus aureus; assay: Antimicrobial activity against erythromycin-susceptible Staphylococcus aureus ATCC 29213
# [3] = test system: Streptococcus pneumoniae; assay: Antimicrobial activity against erythromycin-susceptible Streptococcus pneumoniae ATCC 49619
# [4] = test system: Staphylococcus aureus; assay: Antimicrobial activity against erythromycin-susceptible Staphylococcus aureus PU32 encoded by erm(A) gene
# [5] = test system: Streptococcus pneumoniae; assay: Antimicrobial activity against erythromycin-resistant Streptococcus pneumoniae PU11 encoded by erm and mef gene
# [6] = test system: Streptococcus pneumoniae; assay: Antimicrobial activity against erythromycin-resistant Streptococcus pneumoniae PU13 encoded by erm and mef gene
SMILES,MIC [1] [µg/mL],MIC [2] [µg/mL],MIC [3] [µg/mL],MIC [4] [µg/mL],MIC [5] [µg/mL],MIC [6] [µg/mL]
CC[C@H]1OC(=O)[C@H](C)[C@@H](O/C=C\Cc2cncc3ccccc23)[C@H](C)[C@@H](O[C@@H]2O[C@H](C)C[C@H](N(C)C)[C@H]2O)[C@](C)(OC)C[C@@H](C)/C(=N\OCc2ccccc2Cl)[C@H](C)[C@H]2OC(=O)O[C@@]21C,64,8,0.25,32,32,32
CC[C@H]1OC(=O)[C@H](C)[C@@H](OC/C=C/c2cncc3ccccc23)[C@H](C)[C@@H](O[C@@H]2O[C@H](C)C[C@H](N(C)C)[C@H]2O)[C@](C)(OC)C[C@@H](C)/C(=N\OCc2ccccc2Cl)[C@H](C)[C@H]2OC(=O)O[C@@]21C,64,64,4,64,32,32
CC[C@H]1OC(=O)[C@H](C)[C@@H](O[C@H]2C[C@@](C)(OC)[C@@H](O)[C@H](C)O2)[C@H](C)[C@@H](O[C@@H]2O[C@H](C)C[C@H](N(C)C)[C@H]2O)[C@](C)(O)C[C@@H](C)CN(C)[C@H](C)[C@@H](O)[C@]1(C)O [AZITHROMYCIN],> 256,0.5,0.064,64,128,128
CC[C@H]1OC(=O)[C@H](C)[C@@H](O[C@H]2C[C@@](C)(OC)[C@@H](O)[C@H](C)O2)[C@H](C)[C@@H](O[C@@H]2O[C@H](C)C[C@H](N(C)C)[C@H]2O)[C@](C)(OC)C[C@@H](C)C(=O)[C@H](C)[C@@H](O)[C@]1(C)O [CLARITHROMYCIN],> 256,0.5,0.032,128,128,128
